How the values were obtained:
[1] = tested on: Herpes simplex virus type 1 (Strain S); experiment: Orofacial Herpes simplex virus type 1 infection in mice, oral treatment (Table XIII); assay type: in vivo, Herpes simplex virus type 1; HRS (hairless) mice; conditions: for Lesion Incidence (%) / Lesion Incidence (number/Total) / Lesion Severity (scale 0 to 4): 7 days
Protocol: Twenty grams HRS (hairless) mice were infected on the abraded orofacial area with Herpes simplex virus type 1 (Strain S). […] At 7 days after initiation of infection, the extent of lesion development in the orofacial area was measured on a scale of 0 (no lesions) to 4 (massive lesions over the entire snout).

HSV-1 PAA ®1 = conditions: HSV-1 PAA R1
HSV-1 [2] = experiment: Corneal HSV-1 infection of rabbit eyes, topical treatment (Table VI); assay type: in vivo, HSV-1; rabbits; conditions: for Min. Effective Dose: corneal infection, topical treatment; for limiting progression and resolving corneal lesions: infected rabbits
[3] = target: thymidine kinase, isolated from HSV1-infected HeLa cells (Human herpesvirus 1, UniProt P0DTH5); experiment: Competition between thymidine and acycloguanosine or compound of formula II for phosphorylation by the virus-induced thymidine kinase; assay type: biochemical; conditions: for Percent monophosphate: 1200 min
HSV-1 (383R1) [4] = assay type: cell-based; conditions: HSV-1 (383R1) vs wild type
Cytomegalovirus = Cytomegalovirus plaque reduction assay on human MRC-5 monolayers; assay type: cell-based, Cytomegalovirus (Towne Strain); human MRC-5 cells
Protocol: The compound of formula II was effective in suppressing cytomegalovirus plaque formation on MRC-5 cell monolayers using 0.1 to 0.6 μg/ml.
^d Plaque reduction assay on human MRC5 cell monolayers

[5] = tested on: HSV-1 wild type (Schooler); experiment: Protection of mice against intraperitoneal infection with HSV-1 (Table IX); assay type: in vivo, HSV-1; mice; conditions: for Mean Survival Time (± SD): HSV-1, s.c. twice daily, 4 days; for protective efficacy over a 10^6 -fold virus challenge range: HSV-1 or HSV-1 (383R1)
Protocol: 1. […] Groups of mice infected intraperitoneally with increasing doses of HSV-1 or HSV-1 (383R1) were treated twice daily subcutaneously for 4 days with either the Cyclic Monophosphate or the compound of Formula II. Mean survival times of treated mice were compared.

[6] = target: HSV1-induced thymidine kinase (Human alphaherpesvirus 1 strain 17, UniProt P0DTH5); experiment: Kinetic parameters with purified viral thymidine kinase; assay type: biochemical; conditions: compound of formula II to acycloguanosine
Adeno Type 2 = experiment: Plaque inhibition, Adeno Type 2 on BSC cells (Table V); assay type: cell-based, Adeno Type 2; BSC (monkey) cells; conditions: for EC50: Primates, read-out: ED50, concentration required for 50% plaque inhibition, Adeno Type 2, BSC
Protocol: ED50 values developed for the cyclic monophosphate are compared on a weight basis to those established for the compound of Formula II and acyclovir.
Adeno Type 2 was assayed on BSC (monkey) cell cultures.

HSV-1 (383R1) [7] = experiment: Phosphorylation capacity of HSV-1 (383R1); assay type: biochemical
[8] = tested on: primary rabbit kidney cell cultures; experiment: Toxicity controls in primary rabbit kidney cell cultures; assay type: cell-based; conditions: at 100 μg/ml
HSV1 (Strain Schooler) = experiment: In vivo assay, intraperitoneal HSV1 infection of mice, subcutaneous treatment (Table IV); parameters: species or system HSV1; ICR/Ha mice; conditions: for Percent Survival: 15 days
Protocol: Twenty gram ICR/Ha mice were infected with approximately 100 lethal doses (100LD50) of HSV1 (Strain Schooler) by the intraperitoneal route. Groups of 10 infected animals were treated twice daily for four days starting immediately after infection by subcutaneous injection at final daily doses of 50, 12.5, 3.1, 0.8, 0.2, 0.05 and 0.0125 mg/kg of potassium 9-(1,3-dihydroxy-2-propoxymethyl)guanine cyclic monophosphate. The mice were observed daily for 15 days at the same time each day and the day of death recorded for each animal.

HSV-1 [9] = experiment: Intracerebral HSV-1 infection in weanling mice, subcutaneous treatment (Table VI); assay type: in vivo, HSV-1; ICR/Ha weanling mice
HSV2 = experiment: In vitro assay, viral cytopathology of HSV2 in primary rabbit kidney cells; assay type: cell-based; conditions: Human alphaherpesvirus 2; days 5 and 7; read-out: Min. Effective Dose against HSV2
HSV1 = experiment: In vitro assay, viral cytopathology of HSV1 in primary rabbit kidney cells; assay type: cell-based; conditions: Human alphaherpesvirus 1; days 5 and 7; read-out: Min. Effective Dose against HSV1
polio = assay type: cell-based
[10] = tested on: feline rhinotracheitis virus; experiment: Antiviral activity against feline rhinotracheitis virus; assay type: cell-based; conditions: data not shown, read-out: ED50 (the source's name)
equine herpes virus = experiment: Antiviral activity against equine herpes virus; assay type: cell-based; conditions: data not shown, read-out: ED50 (the source's name)
vesicular stomatitis = assay type: cell-based
influenza A = experiment: RNA virus replication, influenza A; assay type: cell-based

Sequence of thymidine kinase, isolated from HSV1-infected HeLa cells (P0DTH5 whole entry): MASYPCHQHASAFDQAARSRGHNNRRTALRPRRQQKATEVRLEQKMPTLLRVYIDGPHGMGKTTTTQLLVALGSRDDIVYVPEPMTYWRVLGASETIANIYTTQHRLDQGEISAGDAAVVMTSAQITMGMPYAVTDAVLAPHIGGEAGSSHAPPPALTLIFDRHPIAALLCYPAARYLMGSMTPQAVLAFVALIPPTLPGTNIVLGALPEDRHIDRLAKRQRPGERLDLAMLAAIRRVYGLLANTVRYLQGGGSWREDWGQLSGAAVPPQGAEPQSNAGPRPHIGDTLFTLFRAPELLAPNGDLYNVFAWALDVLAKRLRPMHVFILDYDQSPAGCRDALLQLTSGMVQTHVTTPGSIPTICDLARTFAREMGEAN
Sequence of HSV1-induced thymidine kinase (P0DTH5 whole entry): as above

Nc1nc2c(ncn2COCCO)c(=O)[nH]1 [Acycloguanosine, 9-(2-hydroxyethoxymethyl)guanine, reference compound]
Lesion Incidence (%) ([1]; 0.8 mg/kg/day oral): 88% | Lesion Incidence (number/Total) ([1]; 0.8 mg/kg/day oral): 7/8 | Lesion Severity (scale 0 to 4) ([1]; 0.8 mg/kg/day oral): 3.11 | Lesion Incidence (%) ([1]; 3.1 mg/kg/day oral): 100% | Lesion Incidence (number/Total) ([1]; 3.1 mg/kg/day oral): 6/6 | Lesion Severity (scale 0 to 4) ([1]; 3.1 mg/kg/day oral): 3.25 | Lesion Incidence (%) ([1]; 12.5 mg/kg/day oral): 100% | Lesion Incidence (number/Total) ([1]; 12.5 mg/kg/day oral): 6/6 | Lesion Severity (scale 0 to 4) ([1]; 12.5 mg/kg/day oral): 2.67 | Lesion Incidence (%) ([1]; 50 mg/kg/day oral): 14% | Lesion Incidence (number/Total) ([1]; 50 mg/kg/day oral): 1/7 | incidence of lesions vs placebo ([1]; only at 50 mg/kg): statistically significant protection | extent of lesion development vs placebo ([1]; only at 50 and 12.5 mg/kg): statistically significant protection | Sensitivity (S) or Resistance (R) (HSV-1 PAA ®1): R | Min. Effective Dose (HSV-1 [2]): 1.0% | limiting progression and resolving corneal lesions (HSV-1 [2]): equally effective

Nc1nc2c(ncn2COC(CO)CO)c(=O)[nH]1 [Compound of Formula II, 9-(1,3-Dihydroxy-2-propoxymethyl)guanine]
phosphorylation in presence of a large excess of thymidine ([3]; large excess of thymidine): is phosphorylated by the viral thymidine kinase even in the presence of a large excess of thymidine | Percent monophosphate ([3]; plus 2.5 mM thymidine): 23% | Percent monophosphate ([3]; without thymidine): 93% | less susceptible than wild type (HSV-1 (383R1) [4]): approximately 100 fold | calculated average relative potency to acycloguanosine (95% CI) (Cytomegalovirus): 28.6 | Lesion Incidence (%) ([1]; 0.2 mg/kg/day oral): 100% | Lesion Incidence (number/Total) ([1]; 0.2 mg/kg/day oral): 7/7 | Lesion Severity (scale 0 to 4) ([1]; 0.2 mg/kg/day oral): 2.93 | Lesion Incidence (%) ([1]; 0.8 mg/kg/day oral): 100% | Lesion Incidence (number/Total) ([1]; 0.8 mg/kg/day oral): 7/7 | Lesion Severity (scale 0 to 4) ([1]; 0.8 mg/kg/day oral): 2.93 | Lesion Incidence (%) ([1]; 3.1 mg/kg/day oral): 67% | Lesion Incidence (number/Total) ([1]; 3.1 mg/kg/day oral): 6/9 | Lesion Severity (scale 0 to 4) ([1]; 3.1 mg/kg/day oral): 1.00 | Lesion Incidence (%) ([1]; 12.5 mg/kg/day oral): 20% | Lesion Incidence (number/Total) ([1]; 12.5 mg/kg/day oral): 2/10 | Lesion Severity (scale 0 to 4) ([1]; 12.5 mg/kg/day oral): 0.45 | Lesion Incidence (%) ([1]; 50 mg/kg/day oral): 10% | Lesion Incidence (number/Total) ([1]; 50 mg/kg/day oral): 1/10 | Lesion Severity (scale 0 to 4) ([1]; 50 mg/kg/day oral): 0.05 | incidence of lesions vs placebo ([1]; 50 and 12.5 mg/kg): statistically significant protection | extent of lesion development vs placebo ([1]; all concentrations used): statistically significant protection | relative potency to acycloguanosine ([1]; statistically significant): 6.9 | Mean Survival Time (± SD) [5]: 12.55 (0.88) | protective efficacy over a 10^6 -fold virus challenge range [5]: no significant difference in protective efficacy | relative efficiency as substrate (Vmax /Km) vs acycloguanosine [6]: 30 to 1 | EC50 (Adeno Type 2): 50 µg/mL | phosphorylation by HSV-1 (383R1) (HSV-1 (383R1) [7]): incapable of phosphorylation

Nc1nc2c(ncn2COC2COP(=O)(O)OC2)c(=O)[nH]1 (stereo not shown) [Cyclic Monophosphate, Potassium 9-(1,3-dihydroxy-2-propoxymethyl)guanine cyclic monophosphate]
Toxicity [8]: Not tox. | Ave. Survival Time (HSV1 (Strain Schooler); Expt. 1, 0.2 mg/kg/day s.c.): 13.5 days | Percent Survival (HSV1 (Strain Schooler); Expt. 1, 0.2 mg/kg/day s.c.): 70% | Ave. Survival Time (HSV1 (Strain Schooler); Expt. 1, 0.8 mg/kg/day s.c.): 10.5 days | Percent Survival (HSV1 (Strain Schooler); Expt. 1, 0.8 mg/kg/day s.c.): 40% | Ave. Survival Time (HSV1 (Strain Schooler); Expt. 1, 3.1 mg/kg/day s.c.): 10.7 days | Percent Survival (HSV1 (Strain Schooler); Expt. 1, 3.1 mg/kg/day s.c.): 20% | Ave. Survival Time (HSV1 (Strain Schooler); Expt. 1, 12.5 mg/kg/day s.c.): 19.5 days | Percent Survival (HSV1 (Strain Schooler); Expt. 1, 12.5 mg/kg/day s.c.): 100% | Ave. Survival Time (HSV1 (Strain Schooler); Expt. 1, 50 mg/kg/day s.c.): 19.5 days | Percent Survival (HSV1 (Strain Schooler); Expt. 1, 50 mg/kg/day s.c.): 100% | Ave. Survival Time (HSV1 (Strain Schooler); Expt. 2, 0.0125 mg/kg/day s.c.): 6.3 days | Percent Survival (HSV1 (Strain Schooler); Expt. 2, 0.0125 mg/kg/day s.c.): 10% | Ave. Survival Time (HSV1 (Strain Schooler); Expt. 2, 0.05 mg/kg/day s.c.): 6.0 days | Percent Survival (HSV1 (Strain Schooler); Expt. 2, 0.05 mg/kg/day s.c.): 0% | Ave. Survival Time (HSV1 (Strain Schooler); Expt. 2, 0.2 mg/kg/day s.c.): 8.3 days | Percent Survival (HSV1 (Strain Schooler); Expt. 2, 0.2 mg/kg/day s.c.): 30% | Ave. Survival Time (HSV1 (Strain Schooler); Expt. 2, 0.8 mg/kg/day s.c.): 7.4 days | Percent Survival (HSV1 (Strain Schooler); Expt. 2, 0.8 mg/kg/day s.c.): 0% | Ave. Survival Time (HSV1 (Strain Schooler); Expt. 2, 3.1 mg/kg/day s.c.): 11.5 days | Percent Survival (HSV1 (Strain Schooler); Expt. 2, 3.1 mg/kg/day s.c.): 50% | Ave. Survival Time (HSV1 (Strain Schooler); Expt. 2, 12.5 mg/kg/day s.c.): 15.0 days | Percent Survival (HSV1 (Strain Schooler); Expt. 2, 12.5 mg/kg/day s.c.): 60% | minimal effective dose (HSV-1 [9]; Human alphaherpesvirus 1, sc, intracerebral infection, subcutaneous treatment, read-out: Min. Effective Dose): 0.8 mg/kg/day | efficacy relative to acyclovir by minimum effective dose (HSV-1 [9]; intracerebral): consistently more efficacious than acyclovir | minimal effective concentration (HSV2): 50 to 100 µg/mL | minimal effective concentration (HSV1): 12.5 to 25 µg/mL | effect on RNA virus replication (polio): not effective | Mean Survival Time (± SD) [5]: 12.65 (0.84) | protective efficacy over a 10^6 -fold virus challenge range [5]: no significant difference in protective efficacy | EC50 [10]: ~1 µg/mL | EC50 (Adeno Type 2): 3 µg/mL | inhibition of DNA virus (Adeno Type 2; adenovirus): inhibitory | EC50 (equine herpes virus): ~1 µg/mL | effect on RNA virus replication (vesicular stomatitis): not effective | effect on RNA virus replication (influenza A): not effective | Min. Effective Dose (HSV-1 [2]): 1.0% | limiting progression and resolving corneal lesions (HSV-1 [2]): equally effective

— US4816447A, “Anti-viral guanine compounds” (priority 1984, dated 1989)
